Assay results reported in patent US20250002472A1, “PYRIDYL-CONTAINING COMPOUND” (CHIA TAI TIANQING PHARMACEUTICAL GROUP CO., LTD., priority 2021, published 2025).

Legend:
Mouse pharmacokinetics = type: in vivo; conditions: ICR, plasma, po, 3 mg/kg, mice, intragastric 3 mpk vs intravenous 1 mpk, read-out: Absolute bioavailability F (%)
Protocol: ICR mice weighing 18-22 g were randomized into groups of 9 mice per group after 3-5 days of acclimatization and then administered intragastrically at a dose of 3 mg/kg.
Plasma samples to be tested were prepared by taking blood from the orbit at time points of 15 min, 30 min, 1 h, 2 h, 4 h, 6 h, 8 h, 10 h, and 24 h.
20 μL of each plasma sample to be tested and a standard curve sample were taken, and an acetonitrile solution containing an internal standard was added. A supernatant was obtained by protein precipitation, diluted, and then assayed by LC/MS/MS.
Pharmacokinetic parameters were fitted using a non-compartmental model.

[1] = In vitro liver microsomal stability, mouse; type: in vitro ADME; conditions: mouse liver microsomes 0.5 mg/mL, NADPH, 37° C.
Protocol: (§1) Liver microsome incubation samples were prepared by mixing a PBS buffer (pH=7.4), a liver microsome solution (0.5 mg/mL), a test compound, and an NADPH+MgCl2 solution, and incubated at 37° C. and 300 rpm for 1 h. Zero-hour samples were prepared by mixing a PBS buffer (pH=7.4), a liver microsome solution (0.5 mg/mL), and a test compound. An acetonitrile solution containing an internal standard was added to the samples, and supernatants were prepared by protein precipitation, diluted, and then assayed by LC/MS/MS.

[2] = In vitro liver microsomal stability, human; type: in vitro ADME; conditions: human liver microsomes 0.5 mg/mL, NADPH, 37° C.
Protocol: as §1

[3] = system: OCI-LY10 human diffuse large B-cell lymphoma NOD-SCID mouse subcutaneous xenograft tumor; assay: Efficacy evaluation in OCI-LY10 NOD-SCID mouse subcutaneous xenograft tumor model; type: in vivo, NOD-SCID mice
Source text: Efficacy evaluation in OCI-LY10 human diffuse large B-cell lymphoma NOD-SCID mouse subcutaneous xenograft tumor model
(1) SPF female NOD-SCID mice (source: Jiangsu Huachuang Xinnuo Pharmaceutical Technology Co., Ltd.) were inoculated subcutaneously at the right side armpit with OCI-LY10 human diffuse large B-cell lymphoma cells at 1×10^7 cells/mouse. When the mean tumor volume reached about 200 mm^3, the animals were divided into a control group (vehicle control group) and treatment groups (compound groups).
The administration dose included 1 mg/kg, 2 mg/kg, and 4 mg/kg, and the administration frequency was once daily. The day of grouping was defined as day 0, and intragastric administration was started on day 0 for 21 consecutive days.
Alternatively, the administration dose was 4 mg/kg, and the administration frequency was 5 times per week. The day of grouping was defined as day 0, and intragastric administration was started on day 0 five times per week for two consecutive weeks.
The tumor volume was measured once every 3 days, and meanwhile, the mice were weighed and the data were recorded; the general behavior of the mice was observed and recorded every day. After the experiment was completed, the tumors were removed, weighed, and photographed.
The detection index and the calculation formula are as follows:
Tumor volume TV (mm^3)=½×(a×b^2), wherein a is the long diameter of the tumor, and b is the short diameter of the tumor; • Relative tumor volume RTV=TVt/TV0, wherein TV0 is the tumor volume on day 0, and TVt is the tumor volume at each measurement; • Relative tumor proliferation rate T/C (%)=(TRTV/CRTV)×100%, wherein TRTV is RTV of the treatment group, and CRTV is RTV of the vehicle control group; • Tumor growth inhibition rate TGI (%)=(1−TW/TW0)×100%; wherein TW is the tumor weight of the treatment group, and TW0 is the tumor weight of the vehicle control group; • Weight change rate WCR (%)=(Wtt−Wt0)/Wt0×100%, wherein Wt0 is the body weight of the mouse on day 0, and Wtt is the body weight of the mouse at each measurement.

Compound	Mouse liver microsome Residuals at 60 min (%) [1]	Human liver microsome Residuals at 60 min (%) [2]	further results
NC(=O)/C(=C/n1cnc(-c2cc(C(F)(F)F)nc(C(F)(F)F)c2)n1)c1cnc(NCC(F)F)nc1 [Compound 2]	–	–	bioavailability (Mouse pharmacokinetics): 104%
CC(F)(F)CNc1ncc(/C(=C\n2cnc(-c3cc(C(F)(F)F)nc(C(F)(F)F)c3)n2)C(N)=O)cn1 [Compound 3]	–	–	bioavailability (Mouse pharmacokinetics): 114%
C[C@@H](Nc1ncc(/C(=C\n2cnc(-c3cc(C(F)(F)F)nc(C(F)(F)F)c3)n2)C(N)=O)cn1)C(F)(F)F [Compound 5]	99.03%	97.64%	–
NC(=O)/C(=C/n1cnc(-c2cc(C(F)(F)F)nc(C(F)(F)F)c2)n1)c1cncc(F)c1 [Compound 8]	98.98%	101.7%	–
N#Cc1cncc(/C(=C\n2cnc(-c3cc(C(F)(F)F)nc(C(F)(F)F)c3)n2)C(N)=O)c1 [Compound 10]	93.99%	95.75%	–
NC(=O)/C(=C/n1cnc(-c2cc(C(F)(F)F)nc(C(F)(F)F)c2)n1)c1cnc2ccccc2c1 [Compound 11]	–	–	Weight change rate (%) (mean ± SD) ([3]; Table 5, 4 mg/kg intragastric, Day 18 of assay): 0.6 ± 8.1%
CC(F)(F)CNc1ncc(/C(=C\n2cnc(-c3cc(C4CC4)nc(C(F)(F)F)c3)n2)C(N)=O)cn1 [Compound 15]	–	–	bioavailability (Mouse pharmacokinetics): 94.8%
Cc1ccc(/C(=C\n2cnc(-c3cc(C(F)(F)F)nc(C(F)(F)F)c3)n2)C(N)=O)cn1 [Compound 21]	–	–	bioavailability (Mouse pharmacokinetics): 97.3%; Weight change rate (%) (mean ± SD) ([3]; Table 4, 2 mg/kg intragastric, Day 21 of assay): −2.0 ± 6.5%
NC(=O)/C(=C/n1cnc(-c2cc(C(F)(F)F)nc(C(F)(F)F)c2)n1)c1cnc2cccnc2c1 [Compound 25]	–	–	Weight change rate (%) (mean ± SD) ([3]; Table 4, 4 mg/kg intragastric, Day 21 of assay): 1.7 ± 5.3%
NC(=O)/C(=C/n1cnc(-c2cc(C3CC3)nc(C(F)(F)F)c2)n1)c1cnc2ccccc2c1 [Compound 26]	90.27%	96.64%	–
NC(=O)/C(=C/n1cnc(-c2cc(C3CC3)nc(C(F)(F)F)c2)n1)c1cncc(F)c1 [Compound 27]	94.24%	102.54%	–
N#Cc1cncc(/C(=C\n2cnc(-c3cc(C4CC4)nc(C(F)(F)F)c3)n2)C(N)=O)c1 [Compound 30]	89.94%	98.75%	–
NC(=O)/C(=C/n1cnc(-c2cc(C3CC3)nc(C(F)(F)F)c2)n1)c1cccnc1F [Compound 32]	95.08%	100.32%	–
NC(=O)/C(=C/n1cnc(-c2cc(C3CC3)nc(C(F)(F)F)c2)n1)c1cnc2cccnc2c1 [Compound 33]	98.21%	104.79%	–
COc1ccc(/C(=C\n2cnc(-c3cc(C4CC4)nc(C(F)(F)F)c3)n2)C(N)=O)cn1 [Compound 34]	87.79%	101.21%	–
Cc1ccc(/C(=C\n2cnc(-c3cc(C4CC4)nc(C(F)(F)F)c3)n2)C(N)=O)cn1 [Compound 38]	–	–	bioavailability (Mouse pharmacokinetics): 112%

Further lines, with some results ahead:

Mouse liver microsome Residuals at 60 min (%) [1]	Human liver microsome Residuals at 60 min (%) [2]	Compound	further results
93.27%	100.33%	NC(=O)/C(=C/n1cnc(-c2cc(C(F)(F)F)nc(C(F)(F)F)c2)n1)c1cnc(NCC(F)(F)F)nc1 [Compound 4]	–
91.15%	93.23%	NC(=O)/C(=C/n1cnc(-c2cc(C3CC3)nc(C(F)(F)F)c2)n1)c1cncnc1 [Compound 13]	–
83.14%	80.48%	NC(=O)/C(=C/n1cnc(-c2cc(C3CC3)nc(C(F)(F)F)c2)n1)c1cnc(NCC(F)F)nc1 [Compound 14]	–
90.60%	88.75%	NC(=O)/C(=C/n1cnc(-c2cc(C3CC3)nc(C(F)(F)F)c2)n1)c1cnc(NCC(F)(F)F)nc1 [Compound 16]	–
95.11%	93.92%	C[C@@H](Nc1ncc(/C(=C\n2cnc(-c3cc(C4CC4)nc(C(F)(F)F)c3)n2)C(N)=O)cn1)C(F)(F)F [Compound 17]	–
89.18%	106.91%	NC(=O)/C(=C/n1cnc(-c2cc(C3CC3)nc(C(F)(F)F)c2)n1)c1ccc(F)nc1 [Compound 39]	–
